Laboratory results from patent US8513270B2, “Substituted heterocycles as Janus kinase inhibitors” (Incyte Corporation, priority 2006, dated 2013).
pIC50: −log10 of the molar value.

Legend:
TF1-BCRABL1 cells = TF1-BCRABL1 cells (Homo sapiens, UniProt P00519); experiment: ABL1 cell based assay: viability of ABL1-dependent cell line (CellTiter-Glo); settings: 72 hours, cell viability; read-out: EXAMPLE F JAK2-TF1-BCRABL1 IC50
Method in brief: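 ABL1-dependent cells plated at 3000 per well in RPMI 1640 with 10% FBS and exposed to compounds for 72 h at 37° C, 5% CO2, 0.2% DMSO final. Viability read by CellTiter-Glo luminescence; duplicate or more.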

[1] = biological target: T1, human JAK1 (a.a. 837-1142) (Homo sapiens, UniProt P23458); experiment: In vitro JAK kinase assay (HTRF), JAK1; assay type: biochemical; settings: JAK1, 90 μM ATP; read-out: EXAMPLE A JAK2-JAK1 HTRF-2 IC50
T1 construct: human JAK1 (a.a. 837-1142); His tag (N); made in house; host or cells: insect cells (baculovirus)
T1 sequence (P23458 849-1154): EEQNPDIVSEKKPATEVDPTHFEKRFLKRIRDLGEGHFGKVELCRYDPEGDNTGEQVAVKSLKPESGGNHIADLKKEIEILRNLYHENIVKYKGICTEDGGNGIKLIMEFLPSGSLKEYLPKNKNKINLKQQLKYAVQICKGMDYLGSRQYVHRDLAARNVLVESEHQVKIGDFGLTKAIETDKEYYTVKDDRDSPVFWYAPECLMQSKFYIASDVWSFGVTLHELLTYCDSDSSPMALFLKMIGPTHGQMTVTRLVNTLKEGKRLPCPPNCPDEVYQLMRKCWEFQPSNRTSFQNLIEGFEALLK
Method in brief: (§1)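 His-tagged catalytic domains from baculovirus-infected insect cells phosphorylated 500 nM biotinylated peptide in 50 mM Tris pH 7.8, 100 mM NaCl, 5 mM DTT, 0.01% BSA for 1 h at room temperature. ATP was 90 μM (JAK1), 30 μM (JAK2), 3 μM (JAK3). Detection used Eu-Py20/SA-APC; IC50s were derived.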

[2] = test system: JAK2_INA61 (cancer cell line dependent on cytokines and JAK/STAT signal transduction); experiment: Cellular assay: viability of cytokine-dependent cancer cell line (CellTiter-Glo); assay type: cell-based; settings: 72 hours, read-out: EXAMPLE B JAK2_INA61 IC50
Procedure: One or more compounds herein were tested for inhibitory activity of JAK targets according to at least one of the following cellular assays.
Compounds were added to the cells in DMSO/media (final concentration 0.2% DMSO) and incubated for 72 hours at 37° C., 5% CO2. The effect of compound on cell viability was assessed using the CellTiter-Glo Luminescent Cell Viability Assay (Promega) followed by TopCount (Perkin Elmer, Boston, Mass.) quantitation. Potential off-target effects of compounds were measured in parallel using a non-JAK driven cell line with the same assay readout. […] All experiments were performed in duplicate.

[3] = biological target: T2, human JAK3 (a.a. 781-1124) (Homo sapiens, UniProt P52333); experiment: In vitro JAK kinase assay (HTRF), JAK3; assay type: biochemical; settings: JAK3, 3 μM ATP; read-out: EXAMPLE A JAK2-JAK3 HTRF-2 IC50
T2 construct: JAK3 (a.a. 781-1124); His tag (N); made in house; host or cells: insect cells (baculovirus)
T2 sequence (P52333 781-1124): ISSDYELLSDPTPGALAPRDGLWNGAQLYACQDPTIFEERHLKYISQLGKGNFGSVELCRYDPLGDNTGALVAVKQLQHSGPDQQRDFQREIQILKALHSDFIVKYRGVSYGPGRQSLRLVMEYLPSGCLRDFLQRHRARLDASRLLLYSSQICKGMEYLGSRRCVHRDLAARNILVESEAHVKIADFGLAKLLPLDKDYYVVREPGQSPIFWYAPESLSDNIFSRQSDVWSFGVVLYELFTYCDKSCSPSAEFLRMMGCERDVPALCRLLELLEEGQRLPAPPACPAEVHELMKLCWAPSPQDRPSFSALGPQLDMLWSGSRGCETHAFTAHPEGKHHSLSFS
Method in brief: as §1

[4] = biological target: T3, human JAK2 (a.a. 828-1132) (Homo sapiens, UniProt O60674); experiment: In vitro JAK kinase assay (HTRF), JAK2; assay type: biochemical; settings: JAK2, 30 μM ATP; read-out: EXAMPLE A HTS-JAK2 HTRF-2 IC50
T3 construct: JAK2 (a.a. 828-1132); His tag (N); made in house; host or cells: insect cells (baculovirus)
T3 sequence (O60674 828-1132): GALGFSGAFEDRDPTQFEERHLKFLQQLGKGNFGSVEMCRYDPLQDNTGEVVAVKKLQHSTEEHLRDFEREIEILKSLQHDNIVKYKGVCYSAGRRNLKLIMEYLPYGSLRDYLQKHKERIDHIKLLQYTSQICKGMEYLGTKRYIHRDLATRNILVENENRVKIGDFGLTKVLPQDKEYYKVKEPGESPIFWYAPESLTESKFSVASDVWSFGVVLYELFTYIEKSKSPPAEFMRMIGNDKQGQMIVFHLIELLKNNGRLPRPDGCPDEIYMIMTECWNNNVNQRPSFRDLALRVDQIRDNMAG
Method in brief: as §1

Sequence of TF1-BCRABL1 cells (P00519 whole entry, change not shown): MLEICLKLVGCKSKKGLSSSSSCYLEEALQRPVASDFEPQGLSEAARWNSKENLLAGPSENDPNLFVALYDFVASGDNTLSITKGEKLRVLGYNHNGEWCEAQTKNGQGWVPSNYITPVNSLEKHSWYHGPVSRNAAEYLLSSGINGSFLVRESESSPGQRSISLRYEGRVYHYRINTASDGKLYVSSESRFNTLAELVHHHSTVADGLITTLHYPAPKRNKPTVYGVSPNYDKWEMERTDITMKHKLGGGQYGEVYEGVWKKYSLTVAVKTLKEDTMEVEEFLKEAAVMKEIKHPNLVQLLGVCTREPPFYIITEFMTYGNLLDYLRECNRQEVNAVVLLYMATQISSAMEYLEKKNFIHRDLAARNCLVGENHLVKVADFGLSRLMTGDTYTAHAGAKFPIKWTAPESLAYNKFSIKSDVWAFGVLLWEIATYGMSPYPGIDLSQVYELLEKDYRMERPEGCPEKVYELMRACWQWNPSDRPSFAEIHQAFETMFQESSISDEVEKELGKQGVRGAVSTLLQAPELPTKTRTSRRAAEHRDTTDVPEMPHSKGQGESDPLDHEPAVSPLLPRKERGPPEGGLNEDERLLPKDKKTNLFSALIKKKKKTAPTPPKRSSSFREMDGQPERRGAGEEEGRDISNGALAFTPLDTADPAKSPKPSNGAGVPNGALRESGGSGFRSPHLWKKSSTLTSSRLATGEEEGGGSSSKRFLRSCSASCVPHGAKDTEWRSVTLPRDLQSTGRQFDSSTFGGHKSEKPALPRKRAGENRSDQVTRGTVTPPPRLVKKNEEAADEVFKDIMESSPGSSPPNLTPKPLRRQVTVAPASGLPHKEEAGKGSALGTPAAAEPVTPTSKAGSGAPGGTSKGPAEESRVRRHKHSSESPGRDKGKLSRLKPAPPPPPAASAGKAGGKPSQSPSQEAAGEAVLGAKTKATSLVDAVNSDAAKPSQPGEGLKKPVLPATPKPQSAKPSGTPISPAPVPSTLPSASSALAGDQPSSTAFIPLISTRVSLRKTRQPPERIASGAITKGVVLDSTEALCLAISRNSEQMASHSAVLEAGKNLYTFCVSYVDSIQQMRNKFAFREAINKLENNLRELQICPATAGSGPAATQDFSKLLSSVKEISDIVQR

Compound	pIC50 [1]	pIC50 [2]	pIC50 [3]	pIC50 [4]	GI50 (TF1-BCRABL1 cells)
Cc1ccc(NC(=O)c2cccc(F)c2)cc1-c1ccc2c(c1)[nH]c1ncncc12 [Example 6, 3-fluoro-N-[4-methyl-3-(9H-pyrimido[4,5-b]indol-7-yl)-phenyl]benzamide]	≥ 6.30	6.00 to 6.30	≥ 6.30	≥ 6.30	≤ 500 nM
Cc1ccc(NC(=O)c2cccc(S(F)(F)(F)(F)F)c2)cc1-c1ccc2c(c1)[nH]c1ncncc12 [Example 16, N-[4-methyl-3-(9H-pyrimido-[4,5-b]indol-7-yl)phenyl]-3-(pentafluoro-λ(6)-sulfanyl)-benzamide]	≥ 6.30	6.00 to 6.30	≥ 6.30	≥ 6.30	≤ 500 nM
COc1cccc(C(=O)Nc2ccc(C)c(-c3ccc4c(c3)[nH]c3ncncc34)c2)c1 [Example 11, 3-methoxy-N-[4-methyl-3-(9H-pyrimido[4,5-b]indol-7-yl)-phenyl]benzamide]	≥ 6.30	< 6.00	≥ 6.30	6.00 to 6.30	≤ 500 nM
Cc1ccc(NC(=O)c2cc(C(F)(F)F)ccc2C(F)(F)F)cc1-c1ccc2c(c1)[nH]c1ncncc12 [Example 7, N-[4-methyl-3-(9H-pyrimido[4,5-b]indol-7-yl)phenyl]-2,5-bis(trifluoromethyl)benzamide]	≥ 6.30	< 6.00	≥ 6.30	< 6.00	500 to 1000 nM
Cc1ccc(NC(=O)c2cccc(C(F)(F)F)c2F)cc1-c1ccc2c(c1)[nH]c1ncncc12 [Example 3, 2-fluoro-N-[4-methyl-3-(9H-pyrimido[4,5-b]indol-7-yl)-phenyl]-3-(trifluoromethyl)-benzamide]	≥ 6.30	≥ 6.30	≥ 6.30	≥ 6.30	≤ 500 nM
N#Cc1ccc(C(=O)Nc2cccc(C(F)(F)F)c2)cc1-c1ccc2c(c1)[nH]c1ncncc12 [Example 51, 4-Cyano-3-(9H-pyrimido[4,5-b]indol-7-yl)-N-[3-(trifluoromethyl)phenyl]-benzamide]	≥ 6.30	< 6.00	< 6.00	≥ 6.30	≤ 500 nM
Cc1ccc(NC(=O)c2ccc(F)c(C(F)(F)F)c2)cc1-c1ccc2[nH]c3ncncc3c2c1 [Example 42, 4-fluoro-N-[4-methyl-3-(9H-pyrimido[4,5-b]indol-6-yl)-phenyl]-3-(trifluoromethyl)-benzamide]	≥ 6.30	< 6.00	6.00 to 6.30	≥ 6.30	≤ 500 nM

Now from value to compound, other results behind:

pIC50 [1]	pIC50 [2]	pIC50 [3]	pIC50 [4]	Compound	GI50 (TF1-BCRABL1 cells)
< 6.00	< 6.00	≥ 6.30	< 6.00	Cc1ccc(C(=O)NCc2cccc(C(F)(F)F)c2)cc1-c1ccc2c(c1)[nH]c1ncncc12 [Example 56, 4-methyl-3-(9H-pyrimido-[4,5-b]indol-7-yl)-N-[3-(trifluoromethyl)benzyl]-benzamide]	≤ 500 nM
< 6.00	< 6.00	≥ 6.30	< 6.00	Cc1ccc(C(=O)Nc2nnc(C(F)(F)F)s2)cc1-c1ccc2c(c1)[nH]c1ncncc12 [Example 61, 4-methyl-3-(9H-pyrimido-[4,5-b]indol-7-yl)-N-[5-(trifluoromethyl)-1,3,4-thiadiazol-2-yl]benzamide]	500 to 1000 nM
≥ 6.30	< 6.00	< 6.00	< 6.00	Cc1cnc(NC(=O)c2ccc(C)c(-c3ccc4c(c3)[nH]c3ncncc34)c2)s1 [Example 57, 4-methyl-N-(5-methyl-1,3-thiazol-2-yl)-3-(9H-pyrimido-[4,5-b]indol-7-yl)benzamide]	≤ 500 nM
≥ 6.30	6.00 to 6.30	≥ 6.30	≥ 6.30	Cc1cn(-c2cc(NC(=O)c3ccc(C)c(-c4ccc5c(c4)[nH]c4ncncc45)c3)cc(C(F)(F)F)c2)cn1 [Example 62, 4-methyl-N-[3-(4-methyl-1H-imidazol-1-yl)-5-(trifluoro-methyl)phenyl]-3-(9H-pyrimido[4,5-b]indol-7-yl)-benzamide]	≤ 500 nM
